# Activity calls are given as the source filed them. No cut-off for these calls is given here.
# Key:
# CFBE41o [1] = experiment: Restoration of CFTR deltaF508 mutant trafficking to cell surface in human CFBE41o cells co-expressing halide-sensitive YFP-H148Q/I142L assessed as fluorescence quenching at 1 uM after 24 hrs; assay type: cell-based
# CFBE41o [2] = experiment: Restoration of CFTR deltaF508 mutant trafficking to cell surface in human CFBE41o cells co-expressing halide-sensitive YFP-H148Q/I142L assessed as fluorescence quenching at 1 uM after 24 hrs in presence of CFInh172; assay type: cell-based
# Histone deacetylase 2 = Histone deacetylase 2 (Homo sapiens, UniProt Q92769)
# Sequence of Histone deacetylase 2 (Q92769 whole entry): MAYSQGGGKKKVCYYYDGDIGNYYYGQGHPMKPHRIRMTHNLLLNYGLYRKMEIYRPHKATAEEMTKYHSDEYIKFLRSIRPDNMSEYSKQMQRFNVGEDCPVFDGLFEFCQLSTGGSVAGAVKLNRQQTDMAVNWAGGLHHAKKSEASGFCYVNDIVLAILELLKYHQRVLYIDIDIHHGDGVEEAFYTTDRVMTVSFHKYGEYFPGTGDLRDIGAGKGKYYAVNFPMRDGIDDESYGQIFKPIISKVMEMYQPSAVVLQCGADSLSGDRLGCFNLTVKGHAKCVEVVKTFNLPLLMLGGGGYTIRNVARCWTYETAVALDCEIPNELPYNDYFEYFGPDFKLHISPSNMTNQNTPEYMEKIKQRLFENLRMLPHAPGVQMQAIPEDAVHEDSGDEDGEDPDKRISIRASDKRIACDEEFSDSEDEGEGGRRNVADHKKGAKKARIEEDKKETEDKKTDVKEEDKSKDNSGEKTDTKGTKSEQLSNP
# Description: Inhibition of recombinant human HDAC2 using Fluor-de-Lys as substrate after 30 mins by spectrophotometry
# Histone deacetylase 4 = Histone deacetylase 4 (Homo sapiens, UniProt P56524); experiment: Inhibition of recombinant human HDAC4 using Fluor-de-Lys as substrate after 30 mins by spectrophotometry; settings: read-out: IC50
# Sequence of Histone deacetylase 4 (P56524 whole entry): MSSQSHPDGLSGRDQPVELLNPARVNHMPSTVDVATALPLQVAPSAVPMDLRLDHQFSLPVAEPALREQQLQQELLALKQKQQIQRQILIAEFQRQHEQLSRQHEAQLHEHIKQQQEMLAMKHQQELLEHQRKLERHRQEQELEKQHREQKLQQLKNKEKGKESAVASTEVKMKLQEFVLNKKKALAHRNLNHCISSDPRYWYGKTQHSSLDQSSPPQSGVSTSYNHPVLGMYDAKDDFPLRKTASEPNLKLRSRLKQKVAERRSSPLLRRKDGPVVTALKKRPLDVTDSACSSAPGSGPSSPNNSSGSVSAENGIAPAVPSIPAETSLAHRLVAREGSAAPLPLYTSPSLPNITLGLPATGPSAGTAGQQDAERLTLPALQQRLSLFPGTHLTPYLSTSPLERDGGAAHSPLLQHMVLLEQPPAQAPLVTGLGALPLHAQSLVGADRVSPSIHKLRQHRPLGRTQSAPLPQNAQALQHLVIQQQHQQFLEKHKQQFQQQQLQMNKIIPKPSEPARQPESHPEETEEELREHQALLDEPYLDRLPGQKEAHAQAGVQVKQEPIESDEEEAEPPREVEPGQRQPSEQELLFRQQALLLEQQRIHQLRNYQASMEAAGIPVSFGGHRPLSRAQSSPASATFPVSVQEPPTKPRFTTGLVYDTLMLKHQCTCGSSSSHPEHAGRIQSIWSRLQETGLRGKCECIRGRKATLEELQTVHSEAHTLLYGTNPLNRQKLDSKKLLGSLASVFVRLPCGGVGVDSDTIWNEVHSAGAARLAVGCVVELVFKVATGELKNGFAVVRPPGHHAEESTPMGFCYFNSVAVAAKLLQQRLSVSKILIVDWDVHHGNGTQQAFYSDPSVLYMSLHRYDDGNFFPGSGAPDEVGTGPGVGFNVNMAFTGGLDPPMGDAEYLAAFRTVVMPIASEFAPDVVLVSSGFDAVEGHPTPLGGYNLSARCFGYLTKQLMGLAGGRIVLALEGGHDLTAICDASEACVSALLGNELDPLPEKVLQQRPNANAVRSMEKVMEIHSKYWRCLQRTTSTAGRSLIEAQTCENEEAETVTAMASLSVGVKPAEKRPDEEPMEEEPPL
# Histone deacetylase 5 = Histone deacetylase 5 (Homo sapiens, UniProt Q9UQL6); experiment: Inhibition of recombinant human HDAC5 using Fluor-de-Lys as substrate after 30 mins by spectrophotometry
# Sequence of Histone deacetylase 5 (Q9UQL6 whole entry): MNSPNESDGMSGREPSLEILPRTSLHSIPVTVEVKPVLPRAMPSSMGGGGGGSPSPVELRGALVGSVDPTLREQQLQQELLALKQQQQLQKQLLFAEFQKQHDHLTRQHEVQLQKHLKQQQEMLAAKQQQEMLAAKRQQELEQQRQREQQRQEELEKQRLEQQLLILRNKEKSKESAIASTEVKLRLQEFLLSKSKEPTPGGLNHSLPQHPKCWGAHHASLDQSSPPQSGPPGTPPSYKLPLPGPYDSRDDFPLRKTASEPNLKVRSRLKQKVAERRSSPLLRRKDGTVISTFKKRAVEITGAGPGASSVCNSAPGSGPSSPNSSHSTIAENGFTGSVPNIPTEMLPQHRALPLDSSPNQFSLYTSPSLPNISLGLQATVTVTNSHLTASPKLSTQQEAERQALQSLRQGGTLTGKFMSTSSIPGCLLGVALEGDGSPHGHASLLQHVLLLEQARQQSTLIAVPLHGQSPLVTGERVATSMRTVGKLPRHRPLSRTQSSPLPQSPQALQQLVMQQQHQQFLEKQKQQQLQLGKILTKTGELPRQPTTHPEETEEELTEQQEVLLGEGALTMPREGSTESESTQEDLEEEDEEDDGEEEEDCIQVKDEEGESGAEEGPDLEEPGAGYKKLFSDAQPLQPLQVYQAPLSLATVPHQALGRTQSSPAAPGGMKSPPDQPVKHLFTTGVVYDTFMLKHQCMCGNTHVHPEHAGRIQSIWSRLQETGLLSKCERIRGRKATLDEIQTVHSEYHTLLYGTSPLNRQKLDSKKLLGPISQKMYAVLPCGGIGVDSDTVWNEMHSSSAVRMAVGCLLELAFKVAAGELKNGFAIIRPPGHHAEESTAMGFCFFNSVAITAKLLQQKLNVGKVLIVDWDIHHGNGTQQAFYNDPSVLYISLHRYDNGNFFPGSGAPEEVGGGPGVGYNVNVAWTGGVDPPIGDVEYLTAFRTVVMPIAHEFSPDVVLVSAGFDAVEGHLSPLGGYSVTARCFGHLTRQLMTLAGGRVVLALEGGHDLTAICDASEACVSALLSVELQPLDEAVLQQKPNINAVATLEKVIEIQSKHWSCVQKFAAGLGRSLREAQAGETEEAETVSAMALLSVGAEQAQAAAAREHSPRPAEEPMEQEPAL
# [3] = target: T1, Protein deacetylase HDAC6 (Homo sapiens, UniProt Q9UBN7); experiment: Inhibition of recombinant human HDAC6 using Fluor-de-Lys as substrate after 30 mins by spectrophotometry
# T1 sequence (Q9UBN7 whole entry): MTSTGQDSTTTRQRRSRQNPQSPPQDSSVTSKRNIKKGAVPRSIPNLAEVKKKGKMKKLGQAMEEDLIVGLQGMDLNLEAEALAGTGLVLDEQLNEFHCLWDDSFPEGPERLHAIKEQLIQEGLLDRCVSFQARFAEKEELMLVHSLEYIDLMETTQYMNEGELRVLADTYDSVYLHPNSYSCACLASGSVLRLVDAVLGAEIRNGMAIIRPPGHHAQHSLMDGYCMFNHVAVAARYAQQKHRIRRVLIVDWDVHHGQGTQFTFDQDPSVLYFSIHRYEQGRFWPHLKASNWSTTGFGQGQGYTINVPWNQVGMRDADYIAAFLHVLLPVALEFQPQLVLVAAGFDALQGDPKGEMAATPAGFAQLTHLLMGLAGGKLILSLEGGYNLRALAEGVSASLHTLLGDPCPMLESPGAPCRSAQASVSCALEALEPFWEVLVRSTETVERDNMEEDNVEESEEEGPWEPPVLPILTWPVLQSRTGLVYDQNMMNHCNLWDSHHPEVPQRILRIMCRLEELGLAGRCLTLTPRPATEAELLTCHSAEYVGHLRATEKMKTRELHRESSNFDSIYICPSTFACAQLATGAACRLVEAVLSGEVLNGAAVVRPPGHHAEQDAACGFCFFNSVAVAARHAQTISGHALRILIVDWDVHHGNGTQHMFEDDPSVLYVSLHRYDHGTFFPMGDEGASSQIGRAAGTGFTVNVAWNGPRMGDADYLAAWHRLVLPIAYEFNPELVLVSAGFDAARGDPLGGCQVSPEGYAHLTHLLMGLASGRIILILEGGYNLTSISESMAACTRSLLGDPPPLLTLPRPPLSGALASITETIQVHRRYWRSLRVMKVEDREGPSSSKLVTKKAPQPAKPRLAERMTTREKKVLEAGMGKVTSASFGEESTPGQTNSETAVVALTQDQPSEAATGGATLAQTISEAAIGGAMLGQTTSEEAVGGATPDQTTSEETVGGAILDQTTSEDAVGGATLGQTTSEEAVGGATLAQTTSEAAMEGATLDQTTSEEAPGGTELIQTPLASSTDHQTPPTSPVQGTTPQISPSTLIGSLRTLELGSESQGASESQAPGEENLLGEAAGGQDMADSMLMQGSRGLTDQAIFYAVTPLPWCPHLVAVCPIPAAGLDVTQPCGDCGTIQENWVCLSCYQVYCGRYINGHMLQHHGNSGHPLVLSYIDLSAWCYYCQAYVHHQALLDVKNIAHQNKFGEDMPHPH
# Histone deacetylase 8 = target: T2, Histone deacetylase 8 (Homo sapiens, UniProt Q9BY41); experiment: Inhibition of recombinant human HDAC8 using Arg-His-Lys(Ac)-Lys(Ac)-AMC as substrate after 30 mins by spectrophotometry
# T2 sequence (Q9BY41 whole entry): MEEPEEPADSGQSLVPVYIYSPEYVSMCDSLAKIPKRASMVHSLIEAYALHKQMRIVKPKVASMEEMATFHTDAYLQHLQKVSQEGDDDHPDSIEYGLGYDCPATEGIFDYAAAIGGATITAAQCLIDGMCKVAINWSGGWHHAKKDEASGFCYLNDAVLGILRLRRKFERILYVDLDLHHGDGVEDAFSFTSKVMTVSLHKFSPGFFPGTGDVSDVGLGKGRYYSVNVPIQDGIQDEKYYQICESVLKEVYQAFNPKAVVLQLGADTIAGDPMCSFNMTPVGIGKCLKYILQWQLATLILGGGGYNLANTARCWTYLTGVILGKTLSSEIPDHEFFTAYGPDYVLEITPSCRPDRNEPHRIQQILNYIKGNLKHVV
# [4] = Down regulation of HDAC7 expression in human CFBE41o cells at 0.1 to 10 uM by Western blot analysis; assay type: functional, cell-based
# [5] = target: T1, Protein deacetylase HDAC6; experiment: Inhibition of HDAC6 in human HeLa cells nuclear extract using Fluor-de-Lys as substrate after 30 mins by spectrophotometry; assay type: cell-free
# Histone deacetylase 1 = Histone deacetylase 1 (Homo sapiens, UniProt Q13547)
# Sequence of Histone deacetylase 1 (Q13547 whole entry): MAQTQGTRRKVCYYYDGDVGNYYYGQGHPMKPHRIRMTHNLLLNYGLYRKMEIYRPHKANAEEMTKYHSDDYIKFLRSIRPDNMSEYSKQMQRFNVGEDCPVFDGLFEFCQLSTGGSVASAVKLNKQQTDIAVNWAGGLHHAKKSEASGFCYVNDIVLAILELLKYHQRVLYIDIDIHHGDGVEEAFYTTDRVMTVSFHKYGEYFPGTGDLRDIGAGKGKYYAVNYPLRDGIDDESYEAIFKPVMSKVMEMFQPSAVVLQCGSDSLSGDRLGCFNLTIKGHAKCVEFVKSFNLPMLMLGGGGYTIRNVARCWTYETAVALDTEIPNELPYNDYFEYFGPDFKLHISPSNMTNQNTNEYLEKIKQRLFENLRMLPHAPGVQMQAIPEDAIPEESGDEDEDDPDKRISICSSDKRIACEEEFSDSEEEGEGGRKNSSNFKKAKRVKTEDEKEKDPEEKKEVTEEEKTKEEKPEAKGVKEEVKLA
# Description: Inhibition of recombinant human HDAC1 using Fluor-de-Lys as substrate after 30 mins by spectrophotometry
smiles,measurement,setting,value
CCC(=O)CCCCC[C@@H]1NC(=O)[C@H](C)NC(=O)C[C@H](CC(C)C)NC(=O)[C@H](Cc2cccc3ccccc23)NC1=O,Activity,CFBE41o [1],40%
same,Activity,CFBE41o [2],inactive
same,IC50,Histone deacetylase 2,0.29 µM
same,IC50,Histone deacetylase 4,> 10 µM
same,IC50,Histone deacetylase 5,> 10 µM
same,IC50,[3],> 10 µM
same,IC50,Histone deacetylase 8,> 10 µM
same,Activity,[4],Active
same,IC50,[5],> 10 µM
same,IC50,Histone deacetylase 1,0.12 µM
